# Test results published in publication PMC10041537, “Molecular origins of mutational spectra produced by the environmental carcinogen N-nitrosodimethylamine and SN1 chemotherapeutic agents” (NAR Cancer, 2023).
# Legend:
# liver, kidney, lung = assay: Body and organ weights, macroscopic and histological analysis 10 weeks post NDMA treatment; type: in vivo, gptΔ C57BL/6J mice
# Method: Most experiments utilized C57BL/6J gptΔ transgenic mice ([49],[50]), a gift from T. Nohmi. Some experiments used RaDR^R/R;gpt^g/g;Mgmt^−/− mice, which were created by crossing RaDR^R/R;gpt^g/gmice ([37]) with Mgmt^−/− mice ([51]). NDMA was synthesized and characterized as previously described ([52]) (Fig. S1). […] The first dose (3.5 mg/kg in 10 μl) was administered at 8 days of age, and the second dose (7 mg/kg in 20 μl) was administered at 15 days of age. Vehicle treated mice were administered equivalent volumes of saline. Mice were euthanized at ten weeks post-injection by CO2 inhalation. Both male and female mice were used in all experimental groups (n = 5) in all mouse experiments.
# Sections of kidney and liver from mice ten weeks post treatment were fixed in 10% buffered formalin, embedded in paraffin, and sectioned at 5 μm thickness, stained with hematoxylin and eosin (H&E) by the MIT Division of Comparative Medicine Comparative Pathology Laboratory. H&E-stained sections of liver and kidney were scored by a Board-certified veterinary pathologist blinded to sample identity. Sections of liver were evaluated for the presence of hepatocellular degeneration (cell swelling with cytoplasmic alteration), fibrosis, and lipidosis using distribution-based ordinal scoring: 0 = normal, 1, uncommon detection in < 5% of liver fields (200×); 2, detectable in up to 5–20% of liver fields; 3, detectable in up to 20–65% of liver fields; 4, detectable in >65% of liver fields. The following criteria were used for scoring hepatic inflammation, necrosis, nuclear enlargement (karyomegaly), extramedullary hematopoiesis, Kupffer cell hyperplasia, Ito cell hyperplasia, and bile duct hyperplasia: 0 = normal; 1 = minimal (1–5 foci), 2 = mild (6–12 foci), 3 = moderate (13–18 foci), 4 = severe (>18 foci) (adapted from ([54])). A total inflammation score for each liver was generated by combining individual scores of portal, midzonal, and centrilobular inflammation from each submitted section. Sections of kidney were evaluated for the presence of inflammation, glomerulonephropathy, tubular necrosis, tubular degeneration, tubular regeneration, tubular casts and interstitial fibrosis. Slides were examined using an Olympus BX41 microscope attached with an iKona digital camera and photographed.
# human = test system: human; set-up: method as in PMID 21141240; details: cited from earlier work
smiles,measurement,setting,value
"CN(C)N=O [NDMA, N-nitrosodimethylamine]",macroscopic changes in organs,"liver, kidney, lung; 10 weeks post treatment",not observed
same,liver histology: hepatocellular degeneration,"liver, kidney, lung; H&E, P = 0.0079",multifocal areas of periacinar (centrilobular to midzonal) hepatocellular degeneration
same,liver histology: nuclear enlargement,"liver, kidney, lung; H&E, P = 0.0079",karyomegaly
same,body weights vs vehicle controls,"liver, kidney, lung; at euthanasia, 10 weeks post treatment",no difference
same,lung-to-body weight ratio,"liver, kidney, lung; females",increased
same,kidney-to-body weight ratio,"liver, kidney, lung; males",increased
same,liver-to-body weight ratio,"liver, kidney, lung; males",decreased significantly
same,IARC classification,human,probable (Group 2A) human carcinogen
